Measurements from patent publication US9833497B2, “Human originated EGF domain proteins and use of the same” (CHENGDU SOURCEBIO LIMITED-LIABILITY COMPANY, priority 2013, dated 2017).

Tests used:
Assay type in all cases: cell-based
[1] = test system: E. coli DH5α; assay: Antibacterial activity: MIC and growth curve against E. coli DH5α in 96-well plate; conditions: minimal inhibitory concentration against E. coli DH5α; 96-well plate, 5×10^5 CFU/mL, 37° C., judged after 8 h
Method in brief: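 Log-phase DH5α (OD600 about 0.5, 37° C, 185 rpm in LB) was pelleted, resuspended in fresh LB and seeded at 5×10^5 CFU/mL with recombinant protein at 50, 25 and 12.5 μg/mL (two-fold series), in triplicate. Plates were shaken at 175 rpm, 37° C, and OD600 was read every 30 min. MIC was the lowest concentration with no growth.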

[2] = test system: E. coli BL21; assay: MIC against Gram-negative bacteria: E. coli BL21; conditions: for MIC (μg/mL) E. coli BL21 / MIC against E. coli BL21: 5×10^5 CFU/mL
Method in brief: (§1)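 LB broth cultures at McFarland 0.5, spun down, resuspended, diluted to 5×10^5 CFU/mL final. Two-fold serial dilutions of purified human EGF domain proteins, triplicate. 37° C, 175 rpm shaking. Endpoint: no visible growth.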

[3] = test system: Pseudomonas aeruginosa; assay: MIC against Gram-negative bacteria: Pseudomonas aeruginosa; conditions: for MIC (μg/mL) P. aeruginosa / MIC against P. aeruginosa: 5×10^5 CFU/mL
Method in brief: as §1

[4] = test system: Klebsiella pneumonia; assay: MIC against Gram-negative bacteria: Klebsiella pneumonia; conditions: for MIC (μg/mL) K. pneumonia / MIC against K. pneumonia: 5×10^5 CFU/mL
Method in brief: as §1

[5] = test system: Enterobacter cloacae; assay: MIC against Gram-negative bacteria: Enterobacter cloacae; conditions: for MIC (μg/mL) E. cloacae / MIC against E. cloacae: 5×10^5 CFU/mL
Method in brief: as §1

[6] = test system: Aeromonas hydrophila; assay: MIC against Gram-negative bacteria: Aeromonas hydrophila; conditions: for MIC (μg/mL) A. hydrophila / MIC against A. hydrophila: 5×10^5 CFU/mL
Method in brief: as §1

[7] = test system: Citrobacter diversus; assay: MIC against Gram-negative bacteria: Citrobacter diversus; conditions: for MIC (μg/mL) C. diversus / MIC against C. diversus: 5×10^5 CFU/mL
Method in brief: as §1

[8] = test system: Moraxella catarrhalis; assay: MIC against Gram-negative bacteria: Moraxella catarrhalis; conditions: for MIC (μg/mL) M. catarrhalis / MIC against M. catarrhalis: 5×10^5 CFU/mL
Method in brief: as §1

[9] = test system: Proteus mirabilis; assay: MIC against Gram-negative bacteria: Proteus mirabilis; conditions: for MIC (μg/mL) P. mirabilis / MIC against P. mirabilis: 5×10^5 CFU/mL
Method in brief: as §1

[10] = test system: Proteus vulgaris; assay: MIC against Gram-negative bacteria: Proteus vulgaris; conditions: for MIC (μg/mL) P. vulgaris / MIC against P. vulgaris: 5×10^5 CFU/mL
Method in brief: as §1

[11] = test system: Serratia marcescens; assay: MIC against Gram-negative bacteria: Serratia marcescens; conditions: for MIC (μg/mL) S. marcescens / MIC against S. marcescens: 5×10^5 CFU/mL
Method in brief: as §1

[12] = E. coli BL21, 10 h cultivation at 37° C.
[13] = P. aeruginosa, 10 h cultivation at 37° C.
[14] = K. pneumonia, 10 h cultivation at 37° C.
[15] = E. cloacae, 10 h cultivation at 37° C.
[16] = A. hydrophila, 10 h cultivation at 37° C.
[17] = C. diversus, 10 h cultivation at 37° C.
[18] = M. catarrhalis, 10 h cultivation at 37° C.
[19] = P. mirabilis, 10 h cultivation at 37° C.
[20] = P. vulgaris, 10 h cultivation at 37° C.
[21] = S. marcescens, 10 h cultivation at 37° C.

Q: With “PRT747 (DIDECKDPDACSQICVNYKGYFKCECYPGYEMDLLTKNCK; listed as Homo sapiens)” as the substance, how does the MIC [1] read?
A: Its MIC is 50 µg/mL.

Q: What about the “MIC (μg/mL) E. coli BL21” value [2, 12] of the same substance?
A: The value was 50 µg/mL.

Q: And the “MIC (μg/mL) P. aeruginosa” value [3, 13]?
A: The value was 12.5 µg/mL.

Q: What about the “MIC (μg/mL) K. pneumonia” value [4, 14] of the same substance?
A: The value was 12.5 µg/mL.

Q: What about the “MIC (μg/mL) E. cloacae” value [5, 15] of the same substance?
A: Its value is 12.5 µg/mL.

Q: And the “MIC (μg/mL) A. hydrophila” value [6, 16]?
A: The value was 12.5 µg/mL.

Q: What about the “MIC (μg/mL) C. diversus” value [7, 17] of the same substance?
A: Its value is 50 µg/mL.

Q: And the “MIC (μg/mL) M. catarrhalis” value [8, 18]?
A: Its value is 12.5 µg/mL.

Q: What about the “MIC (μg/mL) P. mirabilis” value [9, 19] of the same substance?
A: Its value is 50 µg/mL.

Q: And the “MIC (μg/mL) P. vulgaris” value [10, 20]?
A: Its value is 25 µg/mL.

Q: What about the “MIC (μg/mL) S. marcescens” value [11, 21] of the same substance?
A: Its value is 12.5 µg/mL.

Q: How did the MIC [1] turn out when “PRT497 (CACPHSPPASFSPTCVLEGDHDFRCDACLLGYEGKHCERCSSSYYGNPQTPGGSCQK; listed as Homo sapiens)” was run?
A: Its MIC is 12.5 µg/mL.

Q: And the “MIC against E. coli BL21” value ([2]; 96-well plate, 37° C., 10 h)?
A: Its value is 25 µg/mL.

Q: What about the “MIC against P. aeruginosa” value ([3]; 96-well plate, 37° C., 10 h) of the same substance?
A: Its value is 50 µg/mL.

Q: What about the “MIC against K. pneumonia” value ([4]; 96-well plate, 37° C., 10 h) of the same substance?
A: Its value is 12.5 µg/mL.

Q: And the “MIC against E. cloacae” value ([5]; 96-well plate, 37° C., 10 h)?
A: Its value is 25 µg/mL.

Q: What about the “MIC against A. hydrophila” value ([6]; 96-well plate, 37° C., 10 h) of the same substance?
A: Its value is 50 µg/mL.

Q: And the “MIC against C. diversus” value ([7]; 96-well plate, 37° C., 10 h)?
A: Its value is 25 µg/mL.

Q: And the “MIC against M. catarrhalis” value ([8]; 96-well plate, 37° C., 10 h)?
A: The value was 12.5 µg/mL.

Q: What about the “MIC against P. mirabilis” value ([9]; 96-well plate, 37° C., 10 h) of the same substance?
A: Its value is 50 µg/mL.

Q: What about the “MIC against P. vulgaris” value ([10]; 96-well plate, 37° C., 10 h) of the same substance?
A: Its value is 12.5 µg/mL.

Q: What about the “MIC against S. marcescens” value ([11]; 96-well plate, 37° C., 10 h) of the same substance?
A: Its value is 50 µg/mL.

Q: How did the MIC [1] turn out when “PRT937 (DIDECISKPCMNHGLCHNTQGSYMCECPPGFSGMDCE; listed as Homo sapiens)” was run?
A: The MIC was 25 µg/mL.

Q: And the MIC [2, 12]?
A: Its MIC is 12.5 µg/mL.

Q: And the MIC [3, 13]?
A: The MIC was 50 µg/mL.

Q: What about the MIC [4, 14] of the same substance?
A: The MIC was 25 µg/mL.

Q: And the MIC [5, 15]?
A: Its MIC is 12.5 µg/mL.

Q: And the MIC [6, 16]?
A: Its MIC is 50 µg/mL.

Q: What about the MIC [7, 17] of the same substance?
A: The MIC was 25 µg/mL.

Q: What about the MIC [8, 18] of the same substance?
A: Its MIC is 12.5 µg/mL.

Q: What about the MIC [9, 19] of the same substance?
A: The MIC was 50 µg/mL.

Q: And the MIC [10, 20]?
A: The MIC was 12.5 µg/mL.

Q: And the MIC [11, 21]?
A: Its MIC is 50 µg/mL.

Q: Which MIC [1] does the source give for “PRT58 (PCALGEGPACAHCAPDNSTRCGSCNPGYVLAQGLCR; listed as Homo sapiens)” here?
A: The MIC was 12.5 µg/mL.

Q: What about the “MIC (μg/mL) E. coli BL21” value ([2]; E. coli BL21, 96-well plate, 37° C., 10 h) of the same substance?
A: Its value is 25 µg/mL.

Q: And the “MIC (μg/mL) P. aeruginosa” value ([3]; Pseudomonas aeruginosa, 96-well plate, 37° C., 10 h)?
A: Its value is 12.5 µg/mL.

Q: What about the “MIC (μg/mL) K. pneumonia” value ([4]; Klebsiella pneumonia, 96-well plate, 37° C., 10 h) of the same substance?
A: Its value is 12.5 µg/mL.

Q: What about the “MIC (μg/mL) E. cloacae” value ([5]; Enterobacter cloacae, 96-well plate, 37° C., 10 h) of the same substance?
A: The value was 12.5 µg/mL.

Q: And the “MIC (μg/mL) A. hydrophila” value ([6]; Aeromonas hydrophila, 96-well plate, 37° C., 10 h)?
A: Its value is 12.5 µg/mL.

Q: What about the “MIC (μg/mL) C. diversus” value ([7]; Citrobacter diversus, 96-well plate, 37° C., 10 h) of the same substance?
A: Its value is 12.5 µg/mL.

Q: What about the “MIC (μg/mL) M. catarrhalis” value ([8]; Moraxella catarrhalis, 96-well plate, 37° C., 10 h) of the same substance?
A: The value was 25 µg/mL.

Q: What about the “MIC (μg/mL) P. mirabilis” value ([9]; Proteus mirabilis, 96-well plate, 37° C., 10 h) of the same substance?
A: Its value is 100 µg/mL.

Q: And the “MIC (μg/mL) P. vulgaris” value ([10]; Proteus vulgaris, 96-well plate, 37° C., 10 h)?
A: Its value is 25 µg/mL.

Q: And the “MIC (μg/mL) S. marcescens” value ([11]; Serratia marcescens, 96-well plate, 37° C., 10 h)?
A: Its value is 50 µg/mL.

Q: For “PRT1473 (SFLNCSLDNGGCTHYCLEEVGWRRCSCAPGYKLGDDLLQCH; listed as Homo sapiens)”, which MIC [1] is on record?
A: The MIC was 12.5 µg/mL.

Q: And the “MIC against E. coli BL21” value [2, 12]?
A: Its value is 25 µg/mL.

Q: What about the “MIC against P. aeruginosa” value ([3]; Pseudomonas aeruginosa, 10 h cultivation at 37° C.) of the same substance?
A: The value was 25 µg/mL.

Q: What about the “MIC against K. pneumonia” value ([4]; Klebsiella pneumonia, 10 h cultivation at 37° C.) of the same substance?
A: Its value is 50 µg/mL.

Q: What about the “MIC against E. cloacae” value ([5]; Enterobacter cloacae, 10 h cultivation at 37° C.) of the same substance?
A: The value was 12.5 µg/mL.

Q: What about the “MIC against A. hydrophila” value ([6]; Aeromonas hydrophila, 10 h cultivation at 37° C.) of the same substance?
A: Its value is 50 µg/mL.

Q: And the “MIC against C. diversus” value ([7]; Citrobacter diversus, 10 h cultivation at 37° C.)?
A: The value was 12.5 µg/mL.

Q: And the “MIC against M. catarrhalis” value ([8]; Moraxella catarrhalis, 10 h cultivation at 37° C.)?
A: Its value is 25 µg/mL.

Q: What about the “MIC against P. mirabilis” value ([9]; Proteus mirabilis, 10 h cultivation at 37° C.) of the same substance?
A: The value was 50 µg/mL.

Q: And the “MIC against P. vulgaris” value ([10]; Proteus vulgaris, 10 h cultivation at 37° C.)?
A: Its value is 25 µg/mL.

Q: What about the “MIC against S. marcescens” value ([11]; Serratia marcescens, 10 h cultivation at 37° C.) of the same substance?
A: The value was 12.5 µg/mL.
